“Also recorded” adds a separate entry of the source. Counter-ions that a name gives are not always drawn. Like-named read-outs stand apart in the source and are kept apart here.
Assays:
[1] = molecular target: T1, thrombin (Homo sapiens, UniProt P00734); experiment: In vitro thrombin inhibition assay (fluorogenic substrate Ac-FVR-AMC); assay type: biochemical
T1 construct: a light chain A composed of 39 amino acid residues and a heavy chain B composed of 259 amino acid residues; purchased China National Institute for the Control of Pharmaceutical and Biological Products
Method: Lyophilized thrombin, which was purchased from China National Institute for the Control of Pharmaceutical and Biological Products, was reconstituted (5.4 μg/mL), added to the diluted solution, and pre-incubated at 37°C for 10 min.
sample: initial velocity of compound group; VDMSO: initial velocity of blank group, treated with DMSO alone; Inhibition rate (%) = 100/[1 + 10 (LogIC50−X)h], h represents Hill coefficient.

[2] = system: platelets; experiment: Thrombin-induced platelet aggregation in vitro; assay type: cell-based, rats; conditions: drugs 3 mg/mL; thrombin 0.2 U/mL
Method: Blood was collected from rats and centrifuged for 10mins to obtain platelet-rich plasma, which was centrifuged again to collected platelets. The platelets were resus-pended and diluted to a concentration of 5 × 10^5/mL. PRP ([…]), and thrombin ([…]) were added to the platelet suspension in each group and incubated at 37°C. After incubation for 120 s, the reaction solution was well-mixed, and the same amount of thrombin ([…]) was added to a final concentration of 0.2 U/mL.

[3] = molecular target: T1, thrombin; experiment: Thrombin time; conditions: drugs 3 mg/mL, thrombin 0.2 U/mL
[4] = system: Hep3B, HepG2, HCCLM3 and HUh7 cells; experiment: Thrombin-induced accelerated proliferation of HCC cells (MTS); assay type: cell-based; conditions: 0.5 μM drug, 0.5 U/mL thrombin; for thrombin-induced accelerated proliferation of tumor cells: 12 and 36 h, 4 liver cancer cell lines
Method: Cell lines Hep3B, HepG2, HCCLM3 and HUh7 were purchased from Shanghai Biolaf Biotechnology Co., Ltd., and certified by short tandem repeat profiling and mycoplasma and cell vitality testing. The proliferation rate was determined using a cell proliferation assay kit (TOPSCIENCE, C0005). Briefly, cells were seeded in 96-well plates at a concentration of 10,000 cells/well. MTS was added and incubated at 37°C for 2 h. The absorbance was measured at a wavelength of 490 nm. Three independent experiments were per-formed for each assay.

[5] = system: HepG2 tumor; experiment: HepG2 tumor model in BALB/c nude mice; conditions: 28 days
Method: 20,000 HepG2 cells were injected into the fat pad of each female Balb/c mouse. The long and short diameters of the tumor were measured using a caliper. Medication was started when a rumor size of 100 mm^3 was reached. Sorafenib, ZXX-4, and sorafenib combined with ZXX-4 were administered for 28 days. The body weight and tumor size of the mice were measured twice a week. The mice were sacrificed after 28 days of treatment, the tumor weight was measured, and the number of metastases was counted by Indian ink staining of the lung.

[6] = system: BALB/c nude mice; experiment: Single oral dose tolerance in BALB/c nude mice; assay type: in vivo; conditions: single oral administration of 500 mg/kg, 24 h
[7] = thrombin 5.4 μg/mL, substrate 5 μM, 37°C, read-out: IC50

Row | IC50 [1, 7] [nM] | thrombin time (in words) [3] | Compound | platelet aggregation rate [2] | thrombin-induced accelerated proliferation of tumor cells [4] | other results
1 | 52 ± 9 | significantly prolonged | C-Reactive Protein (CRP) 201–206 acetate [ZXX-17] | less than 50% | reduced to different degrees | 
2 |  |  | CNC(=O)c1cc(Oc2ccc(NC(=O)Nc3ccc(Cl)c(C(F)(F)F)c3)cc2)ccn1 [sorafenib, reference compound] |  |  | tumor weight ([5]; ZXX-4 50 mg/kg/day and/or sorafenib 30 mg/kg/day, oral): slightly better than that of ZXX-4
3 | 45 ± 10 | significantly prolonged | Fc1ccc(Cl)c(COc2cccc3onc(Nc4cccnc4)c23)c1 [ZXX-5, SMS2-IN-2] | less than 50% | reduced to different degrees | 
4 | 175 ± 18 |  | Saralasin acetate [ZXX-1] |  |  | 
5 | 98 ± 15 |  | NCCOc1cc(C(=O)Nc2cc(OCCN)c3ccccc3n2)nc(C(=O)Nc2cc(OCCN)c3ccccc3n2)c1 [ZXX-20, Pyridostatin Trihydrochloride] |  |  | 
6 |  |  | CCCCCCOC(=O)N=C(N)c1ccc(NCc2nc3cc(C(=O)N(CCC(=O)OCC)c4ccccn4)ccc3n2C)cc1 [dabigatran etexilate, reference compound] | less than 50% | reduced to different degrees | 
7 | 68 ± 12 | significantly prolonged | LSKL [ZXX-2] | less than 50% | reduced to different degrees | 

Row | Compound | IC50 [1, 7] [nM] | thrombin time (in words) [3] | platelet aggregation rate [2] | thrombin-induced accelerated proliferation of tumor cells [4] | other results
8 | C=C(c1ccccc1OCc1cccc(Cl)c1)n1ccnc1 [ZXX-11, CROCONAZOLE] |  | significantly prolonged | less than 50% | reduced to different degrees | IC50 [1]: 72 ± 20 nM
9 | [Sarl, Ile8]-Angiotensin II acetate [ZXX-4] | 23 ± 5 | significantly prolonged | less than 50% | reduced to different degrees | platelet aggregation rate compared with dabigatran etexilate [2]: not significant; thrombin time ([3]; 180 s = upper limit of detection): 180 s; relative activity on thrombin-induced proliferation [4]: highest activity, which was comparable to dabigatran etexilate; survival after single dose [6]: survived; HepG2 tumor growth ([5]; 50 mg/kg/day oral): inhibited HepG2 tumor growth; number of lung metastatic nodules ([5]; ZXX-4 50 mg/kg/day and/or sorafenib 30 mg/kg/day, oral, Indian ink staining): com-parable to that of sorafenib; also recorded: reduced tumor metastasis; effect on the efficacy of sorafenib ([5]; ZXX-4 50 mg/kg/day with sorafenib 30 mg/kg/day, oral): enhanced
